Measured values from PubChem BioAssay AID1918939 (Molecular Pharmacology Branch, DTP, NCI, 2023).
pIC50: −log10 of the molar value. Where “and” joins values, the source holds several entries; their conditions need not be identical. Identical values can stand only once.

System: 653999-131-R-J2-PDC complex spheroid viability
Assay: Anticancer human tumor 653999-131-R-J2-PDC patient-derived lung adenocarcinoma cell line growth inhibition
Conditions: for viability, T/C: stronger effect = lower value
In short: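 Multicellular complex spheroids of tumor cells with human endothelial cells (HUVEC) and mesenchymal stem cells; the LSD1 inhibitor iadademstat was combined with standard-of-care or investigational agents. Top concentration at or near clinical Cmax, half-log dilutions; final DMSO ≤0.25%.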

[1] = curve of first compound, second compound 0.1 µM
[2] = curve of first compound, second compound 0.316 µM
[3] = curve of first compound, second compound 1 µM
[4] = curve of first compound, second compound 3.16 µM
[5] = curve of first compound, second compound 10 µM
[6] = second compound 0.1 µM, first compound 0.00949 µM
[7] = second compound 0.1 µM, first compound 0.03 µM
[8] = second compound 0.1 µM, first compound 0.0949 µM
[9] = second compound 0.1 µM, first compound 0.3 µM
[10] = second compound 0.316 µM, first compound 0.00949 µM
[11] = second compound 0.316 µM, first compound 0.03 µM
[12] = second compound 0.316 µM, first compound 0.0949 µM
[13] = second compound 0.316 µM, first compound 0.3 µM
[14] = second compound 1 µM, first compound 0.00949 µM
[15] = second compound 1 µM, first compound 0.03 µM
[16] = second compound 1 µM, first compound 0.0949 µM
[17] = second compound 1 µM, first compound 0.3 µM
[18] = second compound 3.16 µM, first compound 0.00949 µM
[19] = second compound 3.16 µM, first compound 0.03 µM
[20] = second compound 3.16 µM, first compound 0.0949 µM
[21] = second compound 3.16 µM, first compound 0.3 µM
[22] = second compound 10 µM, first compound 0.00949 µM
[23] = second compound 10 µM, first compound 0.03 µM
[24] = second compound 10 µM, first compound 0.0949 µM
[25] = second compound 10 µM, first compound 0.3 µM
[26] = second compound 0.1 µM, first compound 0.0316 µM
[27] = second compound 0.1 µM, first compound 0.1 µM
[28] = second compound 0.1 µM, first compound 0.316 µM
[29] = second compound 0.1 µM, first compound 1 µM
[30] = second compound 0.1 µM, first compound 3.16 µM
[31] = second compound 0.1 µM, first compound 10 µM
[32] = second compound 0.316 µM, first compound 0.0316 µM
[33] = second compound 0.316 µM, first compound 0.1 µM
[34] = second compound 0.316 µM, first compound 0.316 µM
[35] = second compound 0.316 µM, first compound 1 µM
[36] = second compound 0.316 µM, first compound 3.16 µM
[37] = second compound 0.316 µM, first compound 10 µM
[38] = second compound 1 µM, first compound 0.0316 µM
[39] = second compound 1 µM, first compound 0.1 µM
[40] = second compound 1 µM, first compound 0.316 µM
[41] = second compound 1 µM, first compound 1 µM
[42] = second compound 1 µM, first compound 3.16 µM
[43] = second compound 1 µM, first compound 10 µM
[44] = second compound 3.16 µM, first compound 0.0316 µM
[45] = second compound 3.16 µM, first compound 0.1 µM
[46] = second compound 3.16 µM, first compound 0.316 µM
[47] = second compound 3.16 µM, first compound 1 µM
[48] = second compound 3.16 µM, first compound 3.16 µM
[49] = second compound 3.16 µM, first compound 10 µM
[50] = second compound 10 µM, first compound 0.0316 µM
[51] = second compound 10 µM, first compound 0.1 µM
[52] = second compound 10 µM, first compound 0.316 µM
[53] = second compound 10 µM, first compound 1 µM
[54] = second compound 10 µM, first compound 3.16 µM
[55] = second compound 10 µM, first compound 10 µM
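Note: spheroids exposed to agents for seven days before readout.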

Structure (SMILES): Nc1ccccc1NC(=O)c1ccc(CNC(=O)OCc2cccnc2)cc1 + NC1CC1c1ccc(-c2cccc(O)c2)cc1
- pIC50 [1]: 6.45
- pIC50 [2]: 6.61
- pIC50 [3]: 6.53
- pIC50 [4]: 6.67
- pIC50 [5]: 6.75
- viability, T/C [6]: 89%
- viability, T/C [7]: 101%
- viability, T/C [8]: 81.5%
- viability, T/C [9]: 52.9%
- viability, T/C (second compound 0.1 µM, first compound 0.949 µM): 22.6%
- viability, T/C (second compound 0.1 µM, first compound 3 µM): 1.35%
- viability, T/C [10]: 93%
- viability, T/C [11]: 85.8%
- viability, T/C [12]: 64.3%
- viability, T/C [13]: 49.5%
- viability, T/C (second compound 0.316 µM, first compound 0.949 µM): 20.4%
- viability, T/C (second compound 0.316 µM, first compound 3 µM): 1.41%
- viability, T/C [14]: 81.2%
- viability, T/C [15]: 68.5%
- viability, T/C [16]: 77.9%
- viability, T/C [17]: 48%
- viability, T/C (second compound 1 µM, first compound 0.949 µM): 13.1%
- viability, T/C (second compound 1 µM, first compound 3 µM): 0.97%
- viability, T/C [18]: 84.6%
- viability, T/C [19]: 74.4%
- viability, T/C [20]: 69.4%
- viability, T/C [21]: 42.1%
- viability, T/C (second compound 3.16 µM, first compound 0.949 µM): 15.8%
- viability, T/C (second compound 3.16 µM, first compound 3 µM): 1.74%
- viability, T/C [22]: 76.1%
- viability, T/C [23]: 82.2%
- viability, T/C [24]: 57.1%
- viability, T/C [25]: 42.3%
- viability, T/C (second compound 10 µM, first compound 0.949 µM): 13.3%
- viability, T/C (second compound 10 µM, first compound 3 µM): 0.95%

Structure (SMILES): CC1COCCN1c1cc(C2(S(C)(=N)=O)CC2)nc(-c2ccnc3[nH]ccc23)n1 (configuration not stated) + NC1CC1c1ccc(-c2cccc(O)c2)cc1
- pIC50 [1]: < 5.00
- pIC50 [2]: 5.68
- pIC50 [3]: 5.80
- pIC50 [4]: 5.58
- pIC50 [5]: 5.65
- viability, T/C [26]: 99.7%
- viability, T/C [27]: 100%
- viability, T/C [28]: 102%
- viability, T/C [29]: 77.7%
- viability, T/C [30]: 47.9%
- viability, T/C [31]: 51.7%
- viability, T/C [32]: 104%
- viability, T/C [33]: 95.3%
- viability, T/C [34]: 92.5%
- viability, T/C [35]: 62.7%
- viability, T/C [36]: 42.5%
- viability, T/C [37]: 40.2%
- viability, T/C [38]: 83.1%
- viability, T/C [39]: 98.6%
- viability, T/C [40]: 83.7%
- viability, T/C [41]: 57.2%
- viability, T/C [42]: 39.8%
- viability, T/C [43]: 36.7%
- viability, T/C [44]: 90.2%
- viability, T/C [45]: 108%
- viability, T/C [46]: 94.5%
- viability, T/C [47]: 73.2%
- viability, T/C [48]: 43.9%
- viability, T/C [49]: 47.1%
- viability, T/C [50]: 77.2%
- viability, T/C [51]: 93%
- viability, T/C [52]: 82.3%
- viability, T/C [53]: 64%
- viability, T/C [54]: 41.1%
- viability, T/C [55]: 47.3%

Structure (SMILES): COc1ccc([C@@H](O)c2cc(-c3ncnc4cc(N5CCOCC5)ccc34)c(F)cc2Cl)nn1 + NC1CCC(NC2CC2c2ccccc2)CC1
- pIC50 [1]: 5.74
- pIC50 [2]: 5.76
- pIC50 [3]: 5.59
- pIC50 [4]: 5.65
- pIC50 [5]: 5.76
- viability, T/C [26]: 97.4%
- viability, T/C [27]: 94.9%
- viability, T/C [28]: 68.8%
- viability, T/C [29]: 61.5%
- viability, T/C [30]: 42%
- viability, T/C [31]: 30.9%
- viability, T/C [32]: 106%
- viability, T/C [33]: 85.3%
- viability, T/C [34]: 74.7%
- viability, T/C [35]: 60.8%
- viability, T/C [36]: 39%
- viability, T/C [37]: 28.1%
- viability, T/C [38]: 96.5%
- viability, T/C [39]: 98%
- viability, T/C [40]: 76.6%
- viability, T/C [41]: 68.5%
- viability, T/C [42]: 45.7%
- viability, T/C [43]: 29.4%
- viability, T/C [44]: 84.2%
- viability, T/C [45]: 114%
- viability, T/C [46]: 78.1%
- viability, T/C [47]: 65.2%
- viability, T/C [48]: 46.4%
- viability, T/C [49]: 31.5%
- viability, T/C [50]: 108%
- viability, T/C [51]: 98%
- viability, T/C [52]: 72%
- viability, T/C [53]: 57%
- viability, T/C [54]: 44.6%
- viability, T/C [55]: 29.4%

Structure (SMILES): CCc1c2c(nc3ccc(O)cc13)-c1cc3c(c(=O)n1C2)COC(=O)[C@]3(O)CC
- viability, T/C (compound 0.000949 µM): 25.8% and 33.6%
- viability, T/C (compound 0.003 µM): 18.4% and 20.9%
- viability, T/C (compound 0.00949 µM): 11.9% and 12.5%
- viability, T/C (compound 0.03 µM): 7.76% and 6.48%
- viability, T/C (compound 0.0949 µM): 5.86% and 7.35%
- viability, T/C (compound 0.3 µM): 5.31% and 11.3%
- pIC50 (curve of compound): > 9.02

Structure (SMILES): O=C(c1cc(Cc2n[nH]c(=O)c3ccccc23)ccc1F)N1CCN(C(=O)C2CC2)CC1 + NC1CCC(NC2CC2c2ccccc2)CC1
- pIC50 [1]: < 5.00
- pIC50 [2]: < 5.00
- pIC50 [3]: < 5.00
- pIC50 [4]: < 5.00
- pIC50 [5]: < 5.00
- viability, T/C [26]: 86.2%
- viability, T/C [27]: 94.2%
- viability, T/C [28]: 80.7%
- viability, T/C [29]: 87.7%
- viability, T/C [30]: 81.6%
- viability, T/C [31]: 57.6%
- viability, T/C [32]: 99.5%
- viability, T/C [33]: 93.6%
- viability, T/C [34]: 98.3%
- viability, T/C [35]: 84.6%
- viability, T/C [36]: 70.1%
- viability, T/C [37]: 53%
- viability, T/C [38]: 103%
- viability, T/C [39]: 92.5%
- viability, T/C [40]: 109%
- viability, T/C [41]: 81%
- viability, T/C [42]: 71.5%
- viability, T/C [43]: 56.9%
- viability, T/C [44]: 91.3%
- viability, T/C [45]: 104%
- viability, T/C [46]: 84.8%
- viability, T/C [47]: 84.7%
- viability, T/C [48]: 85.1%
- viability, T/C [49]: 58.5%
- viability, T/C [50]: 113%
- viability, T/C [51]: 93.9%
- viability, T/C [52]: 102%
- viability, T/C [53]: 92.2%
- viability, T/C [54]: 76.4%
- viability, T/C [55]: 60%

Structure (SMILES): CCc1c2c(nc3ccc(O)cc13)-c1cc3c(c(=O)n1C2)COC(=O)[C@]3(O)CC + NC1CC1c1ccc(-c2cccc(O)c2)cc1
- pIC50 [1]: > 9.02
- pIC50 [2]: > 9.02
- pIC50 [3]: > 9.02
- pIC50 [4]: > 9.02
- pIC50 [5]: > 9.02
- viability, T/C (second compound 0.1 µM, first compound 0.000949 µM): 27.2%
- viability, T/C (second compound 0.1 µM, first compound 0.003 µM): 18%
- viability, T/C [6]: 11.7%
- viability, T/C [7]: 5.92%
- viability, T/C [8]: 6.24%
- viability, T/C [9]: 9.54%
- viability, T/C (second compound 0.316 µM, first compound 0.000949 µM): 27.7%
- viability, T/C (second compound 0.316 µM, first compound 0.003 µM): 21%
- viability, T/C [10]: 11.2%
- viability, T/C [11]: 5.65%
- viability, T/C [12]: 6.29%
- viability, T/C [13]: 9.28%
- viability, T/C (second compound 1 µM, first compound 0.000949 µM): 25.6%
- viability, T/C (second compound 1 µM, first compound 0.003 µM): 19.9%
- viability, T/C [14]: 10.6%
- viability, T/C [15]: 5.85%
- viability, T/C [16]: 6.63%
- viability, T/C [17]: 10.5%
- viability, T/C (second compound 3.16 µM, first compound 0.000949 µM): 21.4%
- viability, T/C (second compound 3.16 µM, first compound 0.003 µM): 17.2%
- viability, T/C [18]: 10.3%
- viability, T/C [19]: 5.97%
- viability, T/C [20]: 7.51%
- viability, T/C [21]: 9.23%
- viability, T/C (second compound 10 µM, first compound 0.000949 µM): 23.3%
- viability, T/C (second compound 10 µM, first compound 0.003 µM): 13.5%
- viability, T/C [22]: 12.3%
- viability, T/C [23]: 6.19%
- viability, T/C [24]: 4.83%
- viability, T/C [25]: 9.59%
